# “Also recorded” adds a separate entry of the source.
# Test system: mBG17 binding to SARS-CoV-2 nucleocapsid protein
# Assay: Alanine-scan peptide competition ELISA with serial peptide dilution
# Set-up: species or system mouse
# Details: 4-fold serial dilution of peptide from 40 μg to ~2.5 ng; absorbance at 450 nm; n=3; percentage of binding from no-peptide control
row,Sequence,"competition of mBG17 binding to nucleocapsid protein by alanine mutant peptides, compared with the WT peptide"
1,ADFSKQLQQS [D1A],no change in competition; also recorded: less disruptive to binding
2,DDASKQLQQS [F3A],strong reductions in competition
3,DDFSKALQQS [Q6A],minor reductions in competition; also recorded: less disruptive to binding
4,DDFSKQAQQS [L7A],strong reductions in competition
5,DDFSKQLAQS [Q8A],strong reductions in competition
6,DDFSKQLQQS [a.a. 401–410],strong competition

# Reference: PMC13588620, “Linear antibody epitope prediction using AlphaFold2” (eLife, 2026)
